# According to patent US20210290676A1, “IMPROVING THE EFFICACY AND SAFETY OF ADOPTIVE CELLULAR THERAPIES” (University of Southern California, priority 2018, published 2021):
# How the values were obtained:
# Format in all cases: cell-based, human
# [1] = tested on: Pgp+ (DiOC2(3)-dye effluxing) T cells; experiment: DiOC2(3) dye efflux flow cytometry of inhibitor-treated T cells
# Description: (§1) The use of P-glycoprotein (Pgp)-mediated efflux of DiOC2(3) to isolate stem like T cells for adoptive cellular therapy has been described in application no. […] In the following examples, DiOC2(3) staining was used to study the effect of different inhibitors on generation of stem like T cells.
# (§2) DAY 0: Blood was obtained from unidentified donor. After RBC lysis, PBMC were collected using Ficoll-Hypaque separation. […] T cells were cultured in three different conditions: • 1. XVIVO 15 medium (Lonza) with IL2 50 IU/ml, CD3 antibody (30 ng/ml) and CD28 antibody (30 ng/ml). • 2. XVIVO 15 medium (Lonza) with CD3 antibody (30 ng/ml) and CD28 antibody (30 ng/ml). • 3. XVIVO 15 medium (Lonza) with IL2 50 IU/ml DAY 1: Cells were plated in a 6-well plate at a density of 1 million cells in 2 ml/of media (as described above) and treated with different inhibitors
# (§3) The cell growth medium was changed in 6-well plates and fresh drugs were added at same concentration for one more week.
# (§4) […] (DAY 11): Culture medium was changed and fresh drugs were added in 6-well plates.
# (§5) Subsequently, cells were washed with RPMI medium and dye was effluxed at 37° C. for 90 min. Cells were washed with […], stained with CD62L-APC (5 μl/100 μl/sample) at 4° C. for 1 h, washed twice with PBS+1% FBS and analyzed on flow cytometer to check if these drugs treatment leads to increase in Pgp+/CD62L positive population.
# (§6) Day 0: Blood was obtained from unidentified donor. After RBC lysis, PBMC were collected using Ficoll-Hypaque separation. 200 million T cells were isolated from PBMCs using CD3 microbeads. T cells were cultured overnight in XVIVO 15 medium (Lonza) with IL2 (50 IU/ml), 30 ng/ml of CD3 and CD28 antibodies
# (§7) Day 1: Cells were plated in 24-well plates at a density of 0.3 million cells/ml in each well and treated with different drugs.
# (§8) On day 7, culture medium was replaced with fresh medium with fresh drugs.
# (§9) On day 13, culture medium was replaced with fresh medium and fresh drugs. Half of the cells were transferred to 6-well plates.
# (§10) Day 14: An aliquot of cells with all the treatments listed above (for 13 days) was used to stain the cells with DiOC2(3) (60 ng/ml in RPMI medium) at 4° C. for 40 min, washed with RPMI medium, DiOC2(3) dye was effluxed at 37° C. for 90 min, washed with PBS+1% FBS, stained with CD62L-APC antibody. CD62L is a marker for resting T cells. (5 μl/100 μl/sample) at 4° C. for 1 h, washed twice with PBS+1% FBS and analyzed on flow cytometer to check if these drugs are affecting the dye-effluxing or Pgp+ (i.e., DiOC2(3)-dull) T-cell population.
# [2] = tested on: Pgp+ (DiOC2(3)-dye effluxing cells) and CD62L+ T cells; experiment: DiOC2(3) dye efflux plus CD62L-APC staining, flow cytometry of inhibitor-treated T cells
# Description: as §1, §2, §3, §4, §5, §6, §7, §8, §9, §10
# [3] = tested on: CD8+CD45RA+CCR7+CD62L+ T cells; experiment: Flow cytometry for CD8, CD45RA, CCR7 and CD62L on inhibitor-treated T cells; settings: 13 days of treatment
# Description: as §2
# (§11) A second aliquot of the cells cultured for 13 days with all the treatments listed above (1-21) was washed with PBS+1% FBS, stained with CD8-PerCP, CD45RA-FITC, CCR7-PE and CD62L-APC (5% Y/100 μl/sample for each of 4 antibodies) at 4° C. for 1 h, washed twice with PBS+100 FBS and analyzed on flow cytometer to check if these drugs are enriching T stem cells showing surface expression of CD8+CD45RA+CCR7+CD62L+.
# as §6, §7, §8, §9
# as §11, with “14” for “13”, “above” for “above (1-21)”, “(5 ul/100 ul/sample” for “(5% Y/100 μl/sample”, “PBS+1%” for “PBS+100”, “enriching for” for “enriching”, “T” for “T stem”
# [4] = tested on: CD45RA+CCR7+CD62L+ T cells; experiment: Flow cytometry for CD45RA, CCR7 and CD62L on inhibitor-treated T cells (all T cells); settings: 13 days treatment
# Description: as §2, §11, §6, §7, §8, §9
# as §11, with “14” for “13”, “above” for “above (1-21)”, “(5 ul/100 ul/sample” for “(5% Y/100 μl/sample”, “PBS+1%” for “PBS+100”, “enriching for” for “enriching”, “T” for “T stem”
# [5] = culture with CD3 antibody, CD28 antibody and IL2, 6 days of treatment, 500 nM
# [6] = CD3-CD28-IL2 culture, inhibitor 100 nM
# [7] = CD3-CD28-IL2 culture, inhibitor 500 nM
# [8] = CD3-CD28-IL2 culture, inhibitor 1 μM
# [9] = CD3-CD28 culture, inhibitor 100 nM
# [10] = CD3-CD28 culture, inhibitor 500 nM
# [11] = CD3-CD28 culture, inhibitor 1 μM
# [12] = CD3-IL2 culture, inhibitor 100 nM
# [13] = CD3-IL2 culture, inhibitor 500 nM
# [14] = CD3-IL2 culture, inhibitor 1 μM
structure (smiles),measurement,setting,value
CCCc1cc(C)[nH]c(=O)c1CNC(=O)c1cc(-c2ccnc(N3CCN(C)CC3)c2)cc2c1cnn2C(C)C [GSK343],% of Pgp+ cells out of live cells,"[1]; CD3-CD28-IL2 culture, inhibitor 100 nM, 6 days of treatment",23.29%
same,% of Pgp+ cells out of live cells,"[1]; CD3-CD28-IL2 culture, inhibitor 100 nM, 13 days of treatment",27.15%
same,% of Pgp+ cells out of live cells,"[1]; CD3-CD28-IL2 culture, inhibitor 500 nM, 6 days of treatment",30.62%
same,% of Pgp+ cells out of live cells,"[1]; CD3-CD28-IL2 culture, inhibitor 500 nM, 13 days of treatment",18.00%
same,% of Pgp+ cells out of live cells,"[1]; CD3-CD28-IL2 culture, inhibitor 1 μM, 6 days of treatment",28.03%
same,% of Pgp+ cells out of live cells,"[1]; CD3-CD28-IL2 culture, inhibitor 1 μM, 13 days of treatment",23.42%
same,% of Pgp+ cells out of live cells,"[1]; CD3-CD28 culture, inhibitor 100 nM, 6 days of treatment",48.43%
same,% of Pgp+ cells out of live cells,"[1]; CD3-CD28 culture, inhibitor 100 nM, 13 days of treatment",11.66%
same,% of Pgp+ cells out of live cells,"[1]; CD3-CD28 culture, inhibitor 500 nM, 6 days of treatment",47.09%
same,% of Pgp+ cells out of live cells,"[1]; CD3-CD28 culture, inhibitor 500 nM, 13 days of treatment",10.34%
same,% of Pgp+ cells out of live cells,"[1]; CD3-CD28 culture, inhibitor 1 μM, 6 days of treatment",46.26%
same,% of Pgp+ cells out of live cells,"[1]; CD3-CD28 culture, inhibitor 1 μM, 13 days of treatment",9.43%
same,% of Pgp+ cells out of live cells,"[1]; CD3-IL2 culture, inhibitor 100 nM, 6 days of treatment",25.49%
same,% of Pgp+ cells out of live cells,"[1]; CD3-IL2 culture, inhibitor 100 nM, 13 days of treatment",20.31%
same,% of Pgp+ cells out of live cells,"[1]; CD3-IL2 culture, inhibitor 500 nM, 6 days of treatment",25.21%
same,% of Pgp+ cells out of live cells,"[1]; CD3-IL2 culture, inhibitor 500 nM, 13 days of treatment",23.54%
same,% of Pgp+ cells out of live cells,"[1]; CD3-IL2 culture, inhibitor 1 μM, 6 days of treatment",28.31%
same,% of Pgp+ cells out of live cells,"[1]; CD3-IL2 culture, inhibitor 1 μM, 13 days of treatment",17.50%
same,percentage of Pgp+ cells,[1]; [5],30.62%
same,% of Pgp+ CD62L+cells out of live cells,"[2]; CD3-CD28-IL2 culture, inhibitor 100 nM, 6 days treatment",8.57%
same,% of Pgp+ CD62L+cells out of live cells,"[2]; CD3-CD28-IL2 culture, inhibitor 100 nM, 13 days treatment",7.96%
same,% of Pgp+ CD62L+cells out of live cells,"[2]; CD3-CD28-IL2 culture, inhibitor 500 nM, 6 days treatment",13.33%
same,% of Pgp+ CD62L+cells out of live cells,"[2]; CD3-CD28-IL2 culture, inhibitor 500 nM, 13 days treatment",4.79%
same,% of Pgp+ CD62L+cells out of live cells,"[2]; CD3-CD28-IL2 culture, inhibitor 1 μM, 6 days treatment",12.05%
same,% of Pgp+ CD62L+cells out of live cells,"[2]; CD3-CD28-IL2 culture, inhibitor 1 μM, 13 days treatment",5.75%
same,% of Pgp+ CD62L+cells out of live cells,"[2]; CD3-CD28 culture, inhibitor 100 nM, 6 days treatment",23.35%
same,% of Pgp+ CD62L+cells out of live cells,"[2]; CD3-CD28 culture, inhibitor 100 nM, 13 days treatment",2.50%
same,% of Pgp+ CD62L+cells out of live cells,"[2]; CD3-CD28 culture, inhibitor 500 nM, 6 days treatment",24.79%
same,% of Pgp+ CD62L+cells out of live cells,"[2]; CD3-CD28 culture, inhibitor 500 nM, 13 days treatment",2.12%
same,% of Pgp+ CD62L+cells out of live cells,"[2]; CD3-CD28 culture, inhibitor 1 μM, 6 days treatment",23.41%
same,% of Pgp+ CD62L+cells out of live cells,"[2]; CD3-CD28 culture, inhibitor 1 μM, 13 days treatment",2.28%
same,% of Pgp+ CD62L+cells out of live cells,"[2]; CD3-IL2 culture, inhibitor 100 nM, 6 days treatment",8.62%
same,% of Pgp+ CD62L+cells out of live cells,"[2]; CD3-IL2 culture, inhibitor 100 nM, 13 days treatment",5.24%
same,% of Pgp+ CD62L+cells out of live cells,"[2]; CD3-IL2 culture, inhibitor 500 nM, 6 days treatment",9.32%
same,% of Pgp+ CD62L+cells out of live cells,"[2]; CD3-IL2 culture, inhibitor 500 nM, 13 days treatment",6.82%
same,% of Pgp+ CD62L+cells out of live cells,"[2]; CD3-IL2 culture, inhibitor 1 μM, 6 days treatment",10.99%
same,% of Pgp+ CD62L+cells out of live cells,"[2]; CD3-IL2 culture, inhibitor 1 μM, 13 days treatment",5.17%
same,percentage of Pgp+CD62L+ cells,[2]; [5],13.33%
same,% of CD62L+CCR7+ double positive cells out of CD45RA+ cells in CD8+ T cell population,[3]; [6],82.96%
same,% of CD62L+CCR7+ double positive cells out of CD45RA+ cells in CD8+ T cell population,[3]; [7],82.42%
same,% of CD62L+CCR7+ double positive cells out of CD45RA+ cells in CD8+ T cell population,[3]; [8],85.00%
same,% of CD62L+CCR7+ double positive cells out of CD45RA+ cells in CD8+ T cell population,[3]; [9],85.28%
same,% of CD62L+CCR7+ double positive cells out of CD45RA+ cells in CD8+ T cell population,[3]; [10],80.34%
same,% of CD62L+CCR7+ double positive cells out of CD45RA+ cells in CD8+ T cell population,[3]; [11],85.70%
same,% of CD62L+CCR7+ double positive cells out of CD45RA+ cells in CD8+ T cell population,[3]; [12],73.95%
same,% of CD62L+CCR7+ double positive cells out of CD45RA+ cells in CD8+ T cell population,[3]; [13],77.29%
same,% of CD62L+CCR7+ double positive cells out of CD45RA+ cells in CD8+ T cell population,[3]; [14],81.47%
same,% of CD62L+CCR7+ double positive cells out of CD45RA+ cells in live T cell population,[4]; [6],66.40%
same,% of CD62L+CCR7+ double positive cells out of CD45RA+ cells in live T cell population,[4]; [7],64.47%
same,% of CD62L+CCR7+ double positive cells out of CD45RA+ cells in live T cell population,[4]; [8],67.37%
same,% of CD62L+CCR7+ double positive cells out of CD45RA+ cells in live T cell population,[4]; [9],75.26%
same,% of CD62L+CCR7+ double positive cells out of CD45RA+ cells in live T cell population,[4]; [10],67.97%
same,% of CD62L+CCR7+ double positive cells out of CD45RA+ cells in live T cell population,[4]; [11],76.18%
same,% of CD62L+CCR7+ double positive cells out of CD45RA+ cells in live T cell population,[4]; [12],58.51%
same,% of CD62L+CCR7+ double positive cells out of CD45RA+ cells in live T cell population,[4]; [13],61.18%
same,% of CD62L+CCR7+ double positive cells out of CD45RA+ cells in live T cell population,[4]; [14],61.06%
